# Measured values published in US20160228434A1, “TREATMENT OF DISEASES CAUSED BY ABNORMAL LYMPHOCYTE FUNCTION WITH AN HDAC6 INHIBITOR” (priority 2013, published 2016).
# How the values were obtained:
# [1] = system: peripheral B cells (IgM+B220+); assay: Peripheral B cells by flow cytometry in treated NZB/W mice; format: in vivo; details: 38-week-old NZB/W mice, either low (5 mg/kg) or high (20 mg/kg) dose
# Experimental: (§1) NZB/W mice were injected intraperitoneally 5 days/week with the vehicle control (DMSO), ACY-738 treatment at 5 mg/kg (low-dose), or ACY-738 treatment at 20 mg/kg (high-dose) beginning at 22-weeks-of-age until euthanization at 38 weeks-of-age. ACY-738 was received from Acetylon Pharmaceuticals for use in all studies. Proteinuria and weight were measured every 2 weeks and blood was collected every four weeks for sera analysis. Proteinuria was measured by a standard semi-quantitative test using Siemens Uristix dipsticks (Siemens Healthcare, Deerfield, Ill., USA). Results were quantified according to the manufacturer's instructions and scored as follows: dipstick reading of 0 mg/dL=0, trace=1, 30-100 mg/dL=2, 100-300 mg/dL=3, 300-2000 mg/dL=4, and 2000+ mg/dL=5.
# Blood was collected prior to euthanization using retro-orbital bleeding. RBCs from the peripheral blood were lysed and single cell suspensions were labeled using FITC-conjugated B220 and PerCep710 conjugated IgM anti-mouse mAbs (eBioscience, San Diego, Calif., USA). Mature B cells were identified as IgM^+B220^+ cells. Flow cytometry data was analyzed using FlowJo.
# Similarly, a single-cell suspension of peripheral B cells was obtained from the blood of 38-week-old NZB/W mice and stained for IgM and B220. […]
# [2] = system: NZB/W mice; assay: SLE-associated renal pathology (PAS-stained kidney sections, glomerular score) in treated NZB/W mice; format: in vivo
# Experimental: as §1
# At the time of euthanization, the kidneys were removed and cut in half. One half of the kidney from each mouse was fixed in formalin, embedded in paraffin, sectioned, and stained with Periodic acid-Schiff (PAS). Kidney sections were scored (0-4) for glomerular proliferation, inflammation, crescent formation, necrosis, and by a pathologist, Dr. David Caudell, in a blinded manner.
# In order to assess renal disease, kidney sections were embedded in paraffin and stained by PAS. […] NZB/W mice treated with DMSO alone had thickened, irregular glomerular basement membranes, increased cellularity, fibrosis and crescent formation (see FIG. 11 A). […] Sections were assessed for glomerular proliferation, inflammation, number of nuclei per glomerulus, crescent formation, and fibrosis by a blinded pathologist, and a glomerular score (0-4) was assigned. NZB/W mice that were treated with the vehicle control alone received an average score of 4 compared to an average score of 2 from mice that received the high-dose of ACY-738 (FIG. 11 C).
structure (smiles),measurement,setting,value
O=C(NO)c1cnc(NC2(c3ccccc3)CC2)nc1 [ACY-738],percentage of peripheral B cells (IgM+B220+),[1],no effect
same,kidney pathology,"[2]; 5 mg/kg, PAS-stained sections",did not significantly alter
same,SLE renal pathology,"[2]; 20 mg/kg, PAS-stained sections, lack of fibrosis and crescent bodies",significantly reduced
same,average glomerular score (0-4),"[2]; high dose (20 mg/kg), vehicle control average score 4",2
